From patent publication US8143025B2, “Antibodies against vascular endothelial growth factor receptor-1” (ImClone LLC, priority 2004, dated 2012) come the findings set out here.

In assay [1] the target is T1, VEGFR-I on PAE-VEGFR-I expressing cells (Homo sapiens, UniProt P17948).
T1 construct: host or cells: porcine aorta endothelial (PAE) cells
Put plainly: Surface VEGFR-I blocking assay (125I-VEGF). To be noted: porcine aorta endothelial cells, FIG. 9. It counts as binding. As to the method: The binding of ^125I-VEGF to VEGFR-I on cell surface was performed using PAE-VEGFR-I expressing cells. […] Confluent cells were incubated in serum- and growth supplement-free Dulbecco's Modified Eagle Medium (DMEM)ZF-12 medium (Invitrogen, Carlsbad, Calif.) for 24 hours. Cells were rinsed once with ice-cold DMEMZF-12 medium containing 0.025 M HEPES and 1 mgZml bovine serum albumin (BSA). A serial dilution of anti-VEGFR-I antibody 18F1 or cold VEGF at the concentration of a 200-fold molar excess of labeled VEGF was added to each well in the plate and incubated at 4° C. for 1 hour. After wash, ^125I-VEGF was added at the concentration of 2 ngZml and was incubated at 4° C. for 2 hours on a platform shaker. The cells were washed three times with PBS containing 1 mgZml BSA and 0.25 mM CaCl2, and were incubated for 5 minutes in the presence of 1% Triton X-100, 1 mgZml BSA, and 0.16% NaN3 to remove bound VEGF. The soluble content of each well was counted in a gamma counter. The assays were performed in triplicate in at least three independent experiments and the data were analyzed using Prism GraphPad software 3.03.

The subject of assay [2] is MDA-MB-435 xenograft. Put plainly: MDA-MB-435 breast tumor xenograft. Format: in vivo, mouse. The procedure:
Athymic nude mice (Charles River Laboratories, Wilmington, Mass.) were injected subcutaneously in the left flank area with 2×10^6 of DU4475 cells or 5×10^6 of MDA-MB-231 and MDA-MB-435 cells mixed in Matrigel (Collaborative Research Biochemicals. Bedford, Mass.). In the DU4475 and MDA-MB-231 models, tumors were allowed to reach approximately 200 mm^3 in size and then mice were randomized into groups of 12-16 animals per group. Animals received i.p. administration of the anti-VEGFR-I antibody clones 6F9, 15F11, or 18F1 at a dose of 0.5 mg (MDA-MB-231) or 1 mg (DU4475) three times each week. In the MDA-MB-435 model, the tumor cells were implanted subcutaneously into mammary fat pad area in the mouse. After tumors grew to reach approximately 200 mm^3 in size, mice were randomized into groups of 15 animals per group and intraperitoneally administered with 0.5 mg per dose of 18F1 antibody three times each week. Mice in control groups received an equal volume of saline solution. Treatment of animals was continued for the duration of the experiment. Tumors were measured twice each week with calipers. Tumor volumes were calculated using the formula [π/6 (w1×w2×w2)], where “w1” represents the largest tumor diameter and “w2” represents the smallest tumor diameter. […] Tumor growth was evaluated approximately twice weekly, with tumor volume calculated as π/6* (Length*Width^2), where Length=longest diameter and Width=diameter perpendicular to Length. Tumor dimensions were measured with calipers. T/C % was calculated as 100*(Final Treatment Tumor Volume/Initial Treatment Tumor Volume)/(Final Control Tumor Volume/Initial Control Tumor Volume). […] The effect of treatment on tumor growth was analyzed using repeated measures analysis of variance (RM ANOVA), p<0.05 was considered significant. […] AU treatments were administered i.p. The effect of treatments on tumor growth were analyzed using repeated measures analysis of variance (RM ANOVA), p<0.05 was considered significant.

For assay [3], the system named is HT-29 xenograft. Put plainly: HT-29 colon cancer xenograft. To be noted: monotherapy, FIG. 26A. Format: in vivo, mouse. The procedure: Female athymic nu/nu mice, 6-8 weeks of age, were injected subcutaneously on the lateral dorsal surface with 0.4 mL volume of a suspension containing a human tumor cell line in media, diluted 1:1 with MATRIGEL™ (BD Biosciences). The cell lines used in xenograft models, with the cell doses indicated in parenthesis (10^6 cells/mouse), were: human colon carcinoma cell lines DLD-I (5), GEO (5) and HT-29 (5); human breast carcinoma cell lines DU4475 (2), MDA-MB-231 (5), MDA-MB-435 (5), and BT474 (5). When tumors reached approximately 200-300 mm^3, mice were randomized by tumor size and divided into treatment groups. Tumor growth was evaluated approximately twice weekly, with tumor volume calculated as π/6* (Length*Width^2), where Length=longest diameter and Width=diameter perpendicular to Length. Tumor dimensions were measured with calipers. T/C % was calculated as 100*(Final Treatment Tumor Volume/Initial Treatment Tumor Volume)/(Final Control Tumor Volume/Initial Control Tumor Volume).
18F1 was diluted in 0.9% USP saline (Braun) or phosphate buffered saline (PBS) and administered intraperitoneally in a volume of 0.5 mL per mouse. The effect of treatment on tumor growth was analyzed using repeated measures analysis of variance (RM ANOVA), p<0.05 was considered significant.

T1 sequence (P17948 27-1338): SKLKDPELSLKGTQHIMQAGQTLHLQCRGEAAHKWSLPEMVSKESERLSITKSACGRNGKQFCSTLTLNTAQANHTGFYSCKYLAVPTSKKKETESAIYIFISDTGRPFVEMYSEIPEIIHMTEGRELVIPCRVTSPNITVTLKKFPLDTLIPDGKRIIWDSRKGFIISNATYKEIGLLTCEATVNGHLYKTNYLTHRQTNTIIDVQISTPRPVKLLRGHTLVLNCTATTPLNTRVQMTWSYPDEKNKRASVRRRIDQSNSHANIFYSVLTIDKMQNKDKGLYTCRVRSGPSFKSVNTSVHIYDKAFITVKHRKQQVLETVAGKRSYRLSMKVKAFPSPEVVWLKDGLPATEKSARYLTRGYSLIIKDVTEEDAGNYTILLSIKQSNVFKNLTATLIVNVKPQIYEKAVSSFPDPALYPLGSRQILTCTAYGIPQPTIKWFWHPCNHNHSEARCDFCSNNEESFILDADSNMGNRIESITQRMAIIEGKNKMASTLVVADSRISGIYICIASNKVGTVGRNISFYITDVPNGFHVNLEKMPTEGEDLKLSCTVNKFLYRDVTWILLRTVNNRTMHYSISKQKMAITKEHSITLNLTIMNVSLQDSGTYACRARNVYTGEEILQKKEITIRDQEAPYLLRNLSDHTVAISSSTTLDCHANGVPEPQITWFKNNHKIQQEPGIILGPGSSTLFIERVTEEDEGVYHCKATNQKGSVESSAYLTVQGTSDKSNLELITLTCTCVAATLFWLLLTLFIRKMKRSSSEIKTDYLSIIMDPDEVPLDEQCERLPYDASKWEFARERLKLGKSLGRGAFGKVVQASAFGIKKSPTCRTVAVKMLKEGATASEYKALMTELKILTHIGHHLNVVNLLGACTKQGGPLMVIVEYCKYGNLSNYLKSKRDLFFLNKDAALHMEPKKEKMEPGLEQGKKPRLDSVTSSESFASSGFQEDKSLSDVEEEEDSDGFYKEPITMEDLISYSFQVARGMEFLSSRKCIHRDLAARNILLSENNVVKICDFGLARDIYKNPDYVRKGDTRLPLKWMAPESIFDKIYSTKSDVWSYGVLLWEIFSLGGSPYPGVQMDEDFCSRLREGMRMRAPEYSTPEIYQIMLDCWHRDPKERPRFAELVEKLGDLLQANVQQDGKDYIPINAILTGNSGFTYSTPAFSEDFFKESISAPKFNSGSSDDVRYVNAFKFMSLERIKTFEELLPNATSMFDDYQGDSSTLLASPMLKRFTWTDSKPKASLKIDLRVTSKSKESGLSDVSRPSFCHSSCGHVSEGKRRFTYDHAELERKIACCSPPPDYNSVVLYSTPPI

Take “18F1: human anti-VEGFR-1 monoclonal antibody clone; VL SEQ ID NO: 16, VH SEQ ID NO: 20 [Clone 18F1]”: in assay [1], the “blocking of 125I-VEGF binding to native VEGFR-I” value was “strong blocking activity”. Also, the “tumor growth of the MDA-MB-435 xenograft” value in assay [2] (0.5 or 1 mg per dose three times each week, ANOVA p<0.05, FIG. 20C) is “statistically significant suppression”. Further, the “growth of MDA-MB-435 xenograft tumors” value in assay [2] (Example 9, intraperitoneal, p<0.05, FIG. 25B) is “significantly (p<0.05) suppressed”. Also, the “antitumor effect against HT-29 colon cancer xenografts” value in assay [3] is on record as “significant antitumor effect”.
